Literature values, collected in patent publication US6506055B1, “Method of reducing dentin sensitivity and compositions therefor” (MCG Research Institute, priority 1999, dated 2003).

Conditions: 3% w/v applied to dentin; both in vitro and in vivo

O=C([O-])C(=O)O.[K+] [monopotassium-monohydrogen oxalate]
Hydraulic conductance of dentin: reduced
